Test results: ChEMBL document CHEMBL4152249, “Alkoxyphenylthiazoles with broad-spectrum activity against multidrug-resistant gram-positive bacterial pathogens” (Eur J Med Chem, 2018)
Values after ≈ are worked out from the molar mass of the structure shown. Active and inactive are the calls of the source. The calls are words filed in the database; no cut-off is given here.

Tests used:
[1] = Clearance in Sprague-Dawley rat at 5 uM, iv administered as single bolus dose by LC-MS/MS analysis; format: ADME, organism-based; settings: in vivo
Staphylococcus aureus [2] = experiment: Antibacterial activity against vancomycin-resistant Staphylococcus aureus VRSA10 after 20 hrs by broth microdilution assay; format: functional; settings: VRSA10, 20 h
[3] = Half life in Sprague-Dawley rat at 5 uM, iv administered as single bolus dose by LC-MS/MS analysis; format: ADME, organism-based; settings: in vivo
Staphylococcus aureus [4] = experiment: Bactericidal activity against Staphylococcus aureus USA300 NRS384 incubated for 20 hrs followed by re-plating on tryptic soy agar plates at 37 degC for 18 hrs by broth microdilution assay; format: functional
Staphylococcus aureus [5] = experiment: Antibacterial activity against methicillin-resistant Staphylococcus aureus USA400 NRS123 after 14 passages over 2 weeks by broth microdilution method; format: functional, organism-based
Streptococcus pneumoniae [6] = experiment: Bactericidal activity against methicillin-resistant Streptococcus pneumoniae ATCC 700677 incubated for 20 hrs followed by re-plating on tryptic soy agar plates at 37 degC for 18 hrs by broth microdilution assay; format: functional
[7] = Selectivity index, ratio of compound effect for human Caco2 cells at maximum non-toxic concentration concentration to MIC for vancomycin-resistant Enterococcus faecalis ATCC 51299; format: toxicity; settings: Caco-2 cells, read-out: Selectivity Index
Staphylococcus aureus [8] = experiment: Bactericidal activity against linezolid-resistant Staphylococcus aureus NRS119 incubated for 20 hrs followed by re-plating on tryptic soy agar plates at 37 degC for 18 hrs by broth microdilution assay; format: functional
Staphylococcus aureus [9] = experiment: Bactericidal activity against methicillin-resistant Staphylococcus aureus NRS385 incubated for 20 hrs followed by re-plating on tryptic soy agar plates at 37 degC for 18 hrs by broth microdilution assay; format: functional
Enterococcus faecium [10] = experiment: Bactericidal activity against vancomycin-resistant Enterococcus faecium ATCC 700221 incubated for 20 hrs followed by re-plating on tryptic soy agar plates at 37 degC for 18 hrs by broth microdilution assay; format: functional
Staphylococcus aureus [11] = experiment: Antibacterial activity against vancomycin-resistant Staphylococcus aureus VRSA12 after 20 hrs by broth microdilution assay; format: functional; settings: VRSA12, 20 h
Listeria monocytogenes [12] = experiment: Bactericidal activity against Listeria monocytogenes ATCC 19111 incubated for 20 hrs followed by re-plating on tryptic soy agar plates at 37 degC for 18 hrs by broth microdilution assay; format: functional
Staphylococcus aureus [13] = experiment: Antibacterial activity against methicillin-resistant Staphylococcus aureus after 20 hrs by broth microdilution assay; format: functional
Staphylococcus aureus [14] = experiment: Antibacterial activity against methicillin-resistant Staphylococcus aureus 2658 RCMB after 20 hrs by broth microdilution assay; format: functional
Listeria monocytogenes [15] = experiment: Antibacterial activity against Listeria monocytogenes ATCC 19111 after 20 hrs by broth microdilution assay; format: functional; settings: ATCC 19111, 20 h
Caco-2 = experiment: Cytotoxicity against human Caco2 cells assessed as effect on cell viability up to 64 ug/ml after 2 hrs by MTS assay; format: cell-based; settings: caco-2, 2 h
[16] = Selectivity index, ratio of compound effect for human Caco2 cells at maximum non-toxic concentration concentration to MIC for Listeria monocytogenes ATCC 19111; format: toxicity; settings: Caco-2 cells, read-out: Selectivity Index
Staphylococcus aureus [17] = experiment: Bactericidal activity against vancomycin-resistant Staphylococcus aureus VRSA12 incubated for 20 hrs followed by re-plating on tryptic soy agar plates at 37 degC for 18 hrs by broth microdilution assay; format: functional
Staphylococcus aureus [18] = experiment: Bactericidal activity against vancomycin-resistant Staphylococcus aureus VRSA10 incubated for 20 hrs followed by re-plating on tryptic soy agar plates at 37 degC for 18 hrs by broth microdilution assay; format: functional
[19] = Terminal phase volume of distribution at […] in Sprague-Dawley rat at 5 uM, iv administered as single bolus dose by LC-MS/MS analysis; format: ADME, organism-based; settings: in vivo, read-out: Vbeta
Streptococcus pneumoniae [20] = experiment: Antibacterial activity against cephalosporin-resistant Streptococcus pneumoniae ATCC 51916 after 20 hrs by broth microdilution assay; format: functional; settings: ATCC 51916, 20 h
Staphylococcus aureus [21] = experiment: Bactericidal activity against methicillin-resistant Staphylococcus aureus NRS386 incubated for 20 hrs followed by re-plating on tryptic soy agar plates at 37 degC for 18 hrs by broth microdilution assay; format: functional
Streptococcus pneumoniae [22] = experiment: Bactericidal activity against cephalosporin-resistant Streptococcus pneumoniae ATCC 51916 incubated for 20 hrs followed by re-plating on tryptic soy agar plates at 37 degC for 18 hrs by broth microdilution assay; format: functional
Staphylococcus aureus [23] = experiment: Antibacterial activity against methicillin-resistant Staphylococcus aureus NRS386 after 20 hrs by broth microdilution assay; format: functional; settings: NRS386, 20 h
Staphylococcus aureus [24] = experiment: Bactericidal activity against Staphylococcus aureus USA400 assessed as reduction in colony forming unit at 3 to 6 times MIC treated for 2 hrs followed by re-plating on tryptic soy agar plates at 37 degC for 18 to 20 hrs by broth microdilution assay; format: functional; design: scale not given: the % may be the effect or the level left
Staphylococcus aureus [25] = experiment: Antibacterial activity against methicillin-resistant Staphylococcus aureus NRS385 after 20 hrs by broth microdilution assay; format: functional; settings: NRS385, 20 h
Enterococcus faecalis [26] = experiment: Antibacterial activity against vancomycin-resistant Enterococcus faecalis ATCC 51299 after 20 hrs by broth microdilution assay; format: functional; settings: ATCC 51299, 20 h
[27] = Selectivity index, ratio of compound effect for human Caco2 cells at maximum non-toxic concentration concentration to MIC for methicillin-resistant Staphylococcus epidermidis NRS101; format: toxicity; settings: Caco-2 cells, read-out: Selectivity Index
[28] = Selectivity index, ratio of compound effect for human Caco2 cells at maximum non-toxic concentration concentration to MIC for vancomycin-resistant Enterococcus faecium ATCC 700221; format: toxicity; settings: Caco-2 cells, read-out: Selectivity Index
[29] = Selectivity index, ratio of compound effect for human Caco2 cells at maximum non-toxic concentration concentration to MIC for methicillin-resistant Streptococcus pneumoniae ATCC 700677; format: toxicity; settings: Caco-2 cells, read-out: Selectivity Index
[30] = tested on: Staphylococcus epidermidis; experiment: Bactericidal activity against methicillin-resistant Staphylococcus epidermidis NRS101 incubated for 20 hrs followed by re-plating on tryptic soy agar plates at 37 degC for 18 hrs by broth microdilution assay; format: functional
[31] = Selectivity index, ratio of compound effect for human Caco2 cells at maximum non-toxic concentration concentration to MIC for cephalosporin-resistant Streptococcus pneumoniae ATCC 51916; format: toxicity; settings: Caco-2 cells, read-out: Selectivity Index
Staphylococcus aureus [32] = experiment: Bactericidal activity against methicillin-sensitive Staphylococcus aureus NRS107 incubated for 20 hrs followed by re-plating on tryptic soy agar plates at 37 degC for 18 hrs by broth microdilution assay; format: functional
Enterococcus faecium [33] = experiment: Antibacterial activity against vancomycin-resistant Enterococcus faecium ATCC 700221 after 20 hrs by broth microdilution assay; format: functional; settings: ATCC 700221, 20 h
Streptococcus pneumoniae [34] = experiment: Antibacterial activity against methicillin-resistant Streptococcus pneumoniae ATCC 700677 after 20 hrs by broth microdilution assay; format: functional; settings: ATCC 700677, 20 h
[35] = tested on: Staphylococcus epidermidis; experiment: Antibacterial activity against methicillin-resistant Staphylococcus epidermidis NRS101 after 20 hrs by broth microdilution assay; format: functional; settings: NRS101, 20 h
Enterococcus faecalis [36] = experiment: Bactericidal activity against vancomycin-resistant Enterococcus faecalis ATCC 51299 incubated for 20 hrs followed by re-plating on tryptic soy agar plates at 37 degC for 18 hrs by broth microdilution assay; format: functional
Streptococcus pneumoniae [37] = experiment: Ratio of MBC to MIC for methicillin-resistant Streptococcus pneumoniae ATCC 700677; format: functional
[38] = AUC in Sprague-Dawley rat at 5 uM, iv administered as single bolus dose by LC-MS/MS analysis; format: ADME, organism-based; settings: in vivo
Staphylococcus aureus [39] = experiment: Bactericidal activity against Staphylococcus aureus USA400 NRS123 incubated for 20 hrs followed by re-plating on tryptic soy agar plates at 37 degC for 18 hrs by broth microdilution assay; format: functional
Staphylococcus aureus [40] = experiment: Antibacterial activity against Staphylococcus aureus after 20 hrs by broth microdilution assay; format: functional
[41] = Volume of distribution at steady state in Sprague-Dawley rat at 5 uM, iv administered as single bolus dose by LC-MS/MS analysis; format: ADME, organism-based; settings: in vivo, read-out: Vdss
Staphylococcus aureus [42] = experiment: Antibacterial activity against methicillin-resistant Staphylococcus aureus USA400 NRS123 after 1 passages over 2 weeks by broth microdilution method; format: functional, organism-based

Compound: CCCCCCCOc1ccc(-c2nc(C)c(-c3ccnc(NC(=N)N(C)C)n3)s2)cc1
- clearance at 5 µM [1]: 29.2 mL/min
- MIC (Staphylococcus aureus [2]): 4 µg/mL (≈ 8.84 µM)
- half-life at 5 µM [3]: 4 h
- MBC (Staphylococcus aureus [4]): 4 µg/mL (≈ 8.84 µM)
- Activity (Staphylococcus aureus [5]): Active
- MBC (Streptococcus pneumoniae [6]): 8 µg/mL (≈ 17.7 µM)
- selectivity ratio [7]: 7 to 82
- MBC (Staphylococcus aureus [8]): 8 µg/mL (≈ 17.7 µM)
- MBC (Staphylococcus aureus [9]): 8 µg/mL (≈ 17.7 µM)
- MBC (Enterococcus faecium [10]): 8 µg/mL (≈ 17.7 µM)
- MIC (Staphylococcus aureus [11]): 4 µg/mL (≈ 8.84 µM)
- MBC (Listeria monocytogenes [12]): 4 µg/mL (≈ 8.84 µM)
- MIC (Staphylococcus aureus [13]): 4 to 8 µg/mL (≈ 8.84 to 17.7 µM)
- MIC (Staphylococcus aureus [14]): 1.56 µg/mL (≈ 3.45 µM)
- MIC (Listeria monocytogenes [15]): 4 µg/mL (≈ 8.84 µM)
- Activity (Caco-2): Non-Toxic
- selectivity ratio [16]: 7 to 82
- MBC (Staphylococcus aureus [17]): 4 µg/mL (≈ 8.84 µM)
- MBC (Staphylococcus aureus [18]): 4 µg/mL (≈ 8.84 µM)
- Vd at 5 µM [19]: 10.4 L
- MIC (Streptococcus pneumoniae [20]): 8 µg/mL (≈ 17.7 µM)
- MBC (Staphylococcus aureus [21]): 4 µg/mL (≈ 8.84 µM)
- MBC (Streptococcus pneumoniae [22]): 8 µg/mL (≈ 17.7 µM)
- MIC (Staphylococcus aureus [23]): 4 µg/mL (≈ 8.84 µM)
- Activity (Staphylococcus aureus [24]): 100%
- MIC (Staphylococcus aureus [25]): 8 µg/mL (≈ 17.7 µM)
- MIC (Enterococcus faecalis [26]): 8 µg/mL (≈ 17.7 µM)
- selectivity ratio [27]: 7 to 82
- selectivity ratio [28]: 7 to 82
- selectivity ratio [29]: 7 to 82
- MBC [30]: 4 µg/mL (≈ 8.84 µM)
- selectivity ratio [31]: 7 to 82
- MBC (Staphylococcus aureus [32]): 4 µg/mL (≈ 8.84 µM)
- MIC (Enterococcus faecium [33]): 8 µg/mL (≈ 17.7 µM)
- MIC (Streptococcus pneumoniae [34]): 4 µg/mL (≈ 8.84 µM)
- MIC [35]: 4 µg/mL (≈ 8.84 µM)
- MBC (Enterococcus faecalis [36]): 8 µg/mL (≈ 17.7 µM)
- Ratio (Streptococcus pneumoniae [37]): 1
- AUC at 5 µM [38]: 1140 ng·h/mL
- MBC (Staphylococcus aureus [39]): 8 µg/mL (≈ 17.7 µM)
- MIC (Staphylococcus aureus [40]): 4 µg/mL (≈ 8.84 µM)
- Vd at 5 µM [41]: 4.36 L

Compound: CO[C@H]1/C=C/O[C@@]2(C)Oc3c(C)c(O)c4c(O)c(c(/C=N/N5CCN(C)CC5)c(O)c4c3C2=O)NC(=O)/C(C)=C\C=C\[C@H](C)[C@H](O)[C@@H](C)[C@@H](O)[C@@H](C)[C@H](OC(C)=O)[C@@H]1C
- Activity (Staphylococcus aureus [42]): inactive
